Assay results as given in paper PMC12693167, “Design, Synthesis and Anticancer Activity of 6-Substituted-1-(3,4,5-trimethoxyphenyl)-1H-indole Against Tubulin Polymerisation” (Molecules, 2025).

How the values were obtained:
HeLa cells = experiment: CCK-8 antiproliferative assay, HeLa; type: cell-based; details: Homo sapiens, cell viability (CCK-8), 48 h
Experimental: (§1) To evaluate the anticancer potential of the synthesized compounds, a panel of six human and murine cancer cell lines representing different tissue origins was selected, including MCF-7 (human breast adenocarcinoma), MDA-MB-231 (human triple-negative breast cancer), A549 (human non-small cell lung cancer), HeLa (human cervical cancer), A375 (human melanoma), and B16-F10 (murine melanoma) (Table 2). […] DMSO was used as the vehicle control, and all experiments were performed in triplicate to ensure reproducibility.
(§2) Human breast cancer cells (MCF-7), human lung cancer cells (A549), human cervical cancer cells (HeLa), human triple-negative breast cancer cells (MDA-MB-231), and human malignant melanoma cells (A375) were cultured in DMEM. Mouse melanoma cells (B16F10) were maintained in RPMI-1640 medium. All media were supplemented with 10% fetal bovine serum and 1% penicillin-streptomycin (Life Technologies, Carlsbad, CA, USA) and maintained at 37 °C in a humidified atmosphere with 5% CO2.
(§3) The cytotoxicity of the test compounds was evaluated against MCF-7, A549, HeLa, MDA-MB-231, A375, and B16F10 using the CCK-8 assay. Cells were seeded into 96-well plates at a density of 5000 cells/well. After removing the medium, 100 μL of medium with 0.1% DMSO containing test compounds at different concentrations was added to each well and incubated at 37 °C for another 48 h. The CCK-8 solution was added and incubated for another 1 h, and then, the absorbance was detected with a microplate reader at a wavelength of 450 nm. The IC50 values were calculated by nonlinear regression analysis using GraphPad Prism 8.0.2. All the experiments were repeated at least three times.

MCF-7 cells = experiment: CCK-8 antiproliferative assay, MCF-7; type: cell-based; details: Homo sapiens, MCF7; cell viability (CCK-8), 48 h
Experimental: as §1, §2, §3

B16-F10 cells = experiment: CCK-8 antiproliferative assay, B16-F10; type: cell-based, murine; details: Mus musculus, cell viability (CCK-8), 48 h
Experimental: as §1, §2, §3

MDA-MB-231 cells = experiment: CCK-8 antiproliferative assay, MDA-MB-231; type: cell-based; details: Homo sapiens, cell viability (CCK-8), 48 h
Experimental: as §1, §2, §3

[1] = biological target: T1, purified porcine brain tubulin (Sus scrofa, UniProt P02554); experiment: Biolayer interferometry (BLI) binding to tubulin; details: immobilized tubulin, 1:1 binding model, mean ± SD, triplicate
T1 construct: purified porcine brain tubulin; from tissue; host or cells: porcine brain
T1 sequence (P02554 whole entry): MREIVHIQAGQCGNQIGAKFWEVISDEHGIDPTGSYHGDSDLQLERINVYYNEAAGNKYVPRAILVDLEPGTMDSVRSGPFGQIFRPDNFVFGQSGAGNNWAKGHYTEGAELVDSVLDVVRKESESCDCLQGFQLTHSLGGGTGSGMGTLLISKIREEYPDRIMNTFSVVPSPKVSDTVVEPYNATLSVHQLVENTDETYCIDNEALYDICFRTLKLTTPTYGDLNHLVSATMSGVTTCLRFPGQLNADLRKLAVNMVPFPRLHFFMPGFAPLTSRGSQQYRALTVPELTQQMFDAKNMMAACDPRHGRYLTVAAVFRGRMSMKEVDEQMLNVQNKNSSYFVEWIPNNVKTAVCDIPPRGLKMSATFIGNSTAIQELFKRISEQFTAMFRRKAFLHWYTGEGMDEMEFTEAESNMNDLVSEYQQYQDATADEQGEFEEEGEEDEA
T1 sequence (P02550 whole entry partner): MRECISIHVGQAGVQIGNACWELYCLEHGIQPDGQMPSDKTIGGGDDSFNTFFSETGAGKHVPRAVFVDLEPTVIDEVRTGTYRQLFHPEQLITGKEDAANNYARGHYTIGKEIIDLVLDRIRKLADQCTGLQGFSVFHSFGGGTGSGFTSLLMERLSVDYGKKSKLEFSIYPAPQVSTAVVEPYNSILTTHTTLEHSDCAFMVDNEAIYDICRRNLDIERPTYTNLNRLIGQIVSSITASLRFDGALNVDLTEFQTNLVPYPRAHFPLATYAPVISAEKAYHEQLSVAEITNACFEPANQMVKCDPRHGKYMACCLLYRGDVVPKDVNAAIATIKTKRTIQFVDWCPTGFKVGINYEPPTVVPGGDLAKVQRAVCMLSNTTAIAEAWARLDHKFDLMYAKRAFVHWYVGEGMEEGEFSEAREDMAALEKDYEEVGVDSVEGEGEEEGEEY
Experimental: To detect the direct interaction between the synthesized compounds and tubulin, biolayer interferometry (BLI) experiments were performed using purified porcine brain tubulin immobilized on Super Streptavidin (SSA) biosensor [30]. […] Association and dissociation kinetics were monitored in real time, and equilibrium dissociation constants (KD) were determined by global fitting of the sensorgrams to a 1:1 binding model. All measurements were conducted in triplicate, and results are reported as mean ± SD.
BLI assays were performed on an Octet RED96 instrument (FortéBio, Pall Life Sciences, Menlo Park, CA, USA) at 25 °C in PBS buffer supplemented with 0.02% (v/v) Tween-20 as the running buffer. Biotinylated tubulin proteins (3 μg/mL) were immobilized onto Super Streptavidin (SSA) biosensors. Association and dissociation were monitored for 60 s each. […] Reference subtraction was performed using sensors incubated in running buffer without protein loading to correct for baseline drift. Data were analyzed using Octet Data Analysis software (version 9.0), and equilibrium dissociation constants (KD) were determined by fitting the curves to a 1:1 binding model. All measurements were performed in triplicate, and results are reported as mean ± SD.
BLI assays were performed on an Octet RED96 instrument (FortéBio, Pall Life Sciences) at 25 °C in PBS buffer supplemented with 0.02% (v/v) Tween-20 as the running buffer. Biotinylated tubulin proteins (3 μg/mL) were immobilized onto Super Streptavidin (SSA) biosensors. Association and dissociation were monitored for 60 s […]
Reference subtraction was performed using sensors incubated in running buffer without protein loading to correct for baseline drift. Data were analyzed using Octet Data Analysis software (version 9.0), and equilibrium dissociation constants (KD) were determined by fitting the curves to a 1:1 binding model. All measurements were performed in triplicate, and results are reported as mean ± SD.

A549 cells = experiment: CCK-8 antiproliferative assay, A549; type: cell-based; details: Homo sapiens, cell viability (CCK-8), 48 h
Experimental: as §1, §2, §3

A375 cells = experiment: CCK-8 antiproliferative assay, A375; type: cell-based; details: Homo sapiens, A-375; cell viability (CCK-8), 48 h
Experimental: as §1, §2, §3

[2] = biological target: T2, Porcine brain tubulin protein (Sus scrofa, UniProt P02554); experiment: In vitro tubulin polymerization assay; type: biochemical; details: read-out: IC50, inhibitory effect on tubulin polymerization
T2 construct: Porcine brain tubulin protein was dissolved in EM buffer; from tissue; host or cells: porcine brain
T2 sequence (P02554 whole entry): as the sequence (P02554 whole entry) above
T2 sequence (P02550 whole entry partner): as the sequence (P02550 whole entry partner) above
Experimental: The ability of compound 3g to disrupt microtubule dynamics was assessed using an in vitro tubulin polymerization assay.
Porcine brain tubulin protein was dissolved in EM buffer containing 5% glycerol (80 mM PIPES, 2 mM GTP, 2 mM MgCl2, and 0.5 mM EGTA, pH 6.9). Compounds were diluted in EM buffer to final concentrations of 50, 25, 10, 5, and 2.5 μM and added to a pre-warmed 384-well plate, followed by pre-incubation at 37 °C. Subsequently, 14 μL of the tubulin-GTP mixture was added to each well containing the test compounds. Tubulin polymerization was monitored by measuring absorbance at 340 nm every minute for 60 min. […] Each assay was performed in triplicate.
Absorbance at 340 nm was determined every 1 min.

IC50 (HeLa cells)	IC50 (MCF-7 cells)	IC50 (B16-F10 cells)	IC50 (MDA-MB-231 cells)	KD [1]	Kd [1]	IC50 (A549 cells)	IC50 (A375 cells)	IC50 [2]	Structure (SMILES)
38.5 ± 2.25 µM	3.33 ± 0.28 µM	3.78 ± 0.14 µM	42.9 ± 3.13 µM	low micromolar range	29 ± 4.1 µM	41.2 ± 3.42 µM	27.5 ± 2.5 µM	–	COc1cc(-n2ccc3ccc(-c4cccc(C#N)c4)cc32)cc(OC)c1OC [3b, 3-(1-(3,4,5-trimethoxyphenyl)-1H-indol-6-yl)benzonitrile]
> 100 µM	> 100 µM	> 100 µM	> 100 µM	undetectable binding	> 200 µM	> 100 µM	> 100 µM	–	COc1cc(-n2ccc3ccc(-c4nc5ccccc5s4)cc32)cc(OC)c1OC [3p, 2-(1-(3,4,5-trimethoxyphenyl)-1H-indol-6-yl)benzo[d]thiazole]
–	–	–	–	–	–	–	–	101 µM	COc1cc(-n2ccc3ccc(Cl)cc32)cc(OC)c1OC [H1]
> 100 µM	> 100 µM	> 100 µM	> 100 µM	–	31 ± 3.41 µM	> 100 µM	> 100 µM	–	COc1cc(-n2ccc3ccc(-c4ccc(Oc5ccccc5)cc4)cc32)cc(OC)c1OC [3o, 6-(4-Phenoxyphenyl)-1-(3,4,5-trimethoxyphenyl)-1H-indole]
> 100 µM	> 100 µM	> 100 µM	> 100 µM	undetectable binding	> 200 µM	> 100 µM	> 100 µM	–	COc1cc(-n2ccc3ccc(-c4ccc(C(C)C)cc4)cc32)cc(OC)c1OC [3k, 6-(4-isopropylphenyl)-1-(3,4,5-trimethoxyphenyl)-1H-indole]
46.6 ± 3.65 µM	34.2 ± 1.62 µM	6.49 ± 0.4 µM	23.4 ± 0.44 µM	low micromolar range	24 ± 2.13 µM	60.2 ± 4.17 µM	24.84 ± 0.16 µM	–	CCc1ccccc1-c1ccc2ccn(-c3cc(OC)c(OC)c(OC)c3)c2c1 [3d, 6-(2-ethylphenyl)-1-(3,4,5-trimethoxyphenyl)-1H-indole]
65 ± 3.2 µM	14.2 ± 0.51 µM	68.9 ± 3.17 µM	41.4 ± 1.21 µM	–	220 ± 30.8 µM	48 ± 2.56 µM	16.1 ± 0.38 µM	–	COc1cc(-n2ccc3ccc(-c4ccc(C#N)cc4F)cc32)cc(OC)c1OC [3n, 3-fluoro-4-(1-(3,4,5-trimethoxyphenyl)-1H-indol-6-yl)benzonitrile]
41.8 ± 1.11 µM	17.4 ± 0.35 µM	6.67 ± 0.29 µM	21.37 ± 0.12 µM	–	47 ± 5.62 µM	87.4 ± 3.45 µM	21.1 ± 1.17 µM	–	COc1cc(-n2ccc3ccc(-c4ccccc4C(C)C)cc32)cc(OC)c1OC [3f, 6-(2-isopropylphenyl)-1-(3,4,5-trimethoxyphenyl)-1H-indole]
> 100 µM	> 100 µM	> 100 µM	> 100 µM	undetectable binding	> 200 µM	> 100 µM	> 100 µM	–	CCCCc1ccc(-c2ccc3ccn(-c4cc(OC)c(OC)c(OC)c4)c3c2)cc1 [3i, 6-(4-butylphenyl)-1-(3,4,5-trimethoxyphenyl)-1H-indole]
> 100 µM	> 100 µM	> 100 µM	> 100 µM	undetectable binding	> 200 µM	> 100 µM	> 100 µM	–	COc1cc(-n2ccc3ccc(-c4ccc(C#N)cc4)cc32)cc(OC)c1OC [3m, 4-(1-(3,4,5-trimethoxyphenyl)-1H-indol-6-yl)benzonitrile]
66.5 ± 6.21 µM	9.15 ± 0.21 µM	59.2 ± 5.86 µM	37.7 ± 0.89 µM	low micromolar range	23 ± 2.12 µM	92.4 ± 8.58 µM	53.2 ± 4.06 µM	–	COc1cc(-n2ccc3ccc(-c4cccc(C)c4)cc32)cc(OC)c1OC [3c, 6-(m-tolyl)-1-(3,4,5-trimethoxyphenyl)-1H-indole]
> 100 µM	> 100 µM	> 100 µM	> 100 µM	undetectable binding	> 200 µM	> 100 µM	> 100 µM	–	COc1cc(-n2ccc3ccc(-c4cccc(OC(F)(F)F)c4)cc32)cc(OC)c1OC [3h, 6-(3-(trifluoromethoxy)phenyl)-1-(3,4,5-trimethoxyphenyl)-1H-indole]
> 100 µM	> 100 µM	> 100 µM	> 100 µM	–	110 ± 14.5 µM	> 100 µM	> 100 µM	–	CCc1ccc(-c2ccc3ccn(-c4cc(OC)c(OC)c(OC)c4)c3c2)cc1 [3e, 6-(4-ethylphenyl)-1-(3,4,5-trimethoxyphenyl)-1H-indole]
> 100 µM	> 100 µM	> 100 µM	> 100 µM	low micromolar range	26 ± 3.38 µM	> 100 µM	> 100 µM	–	COc1cc(-n2ccc3ccc(-c4ccccc4C#N)cc32)cc(OC)c1OC [3l, 2-(1-(3,4,5-trimethoxyphenyl)-1H-indol-6-yl)benzonitrile]
> 100 µM	> 100 µM	> 100 µM	> 100 µM	undetectable binding	> 200 µM	> 100 µM	> 100 µM	–	COc1cc(-n2ccc3ccc(-c4ccc(SC)cc4)cc32)cc(OC)c1OC [3j, 6-(4-(methylthio)phenyl)-1-(3,4,5-trimethoxyphenyl)-1H-indole]
> 100 µM	10.1 ± 0.68 µM	45.4 ± 1.11 µM	78.92 ± 0.57 µM	–	39 ± 2.6 µM	36.6 ± 1.78 µM	1.16 ± 0.12 µM	–	COc1cc(-n2ccc3ccc(-c4ccccc4)cc32)cc(OC)c1OC [3a, 6-phenyl-1-(3,4,5-trimethoxyphenyl)-1H-indole]
